In the assay the target is T1, AKT1-E17K (Homo sapiens, UniProt P31749, E17K).
T1 construct: host or cells: HEK-293 (ATCC CRL-1573)
Kind of assay: NanoBRET Target Engagement (TE) Assay. In kind it is cell-based. The essentials:
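Live cells transiently expressing NanoLuc-AKT1 E17K fusion, incubated 2 h with tracer and compound before substrate plus extracellular NanoLuc inhibitor were added. BRET read at 450/600 nm; EC50 from variable-slope sigmoidal fit of tracer displacement.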

IC50 data for 26 molecules are collected here from patent US20260365647A1, “AKT1 MODULATORS” (Alterome Therapeutics, Inc., priority 2022, published 2026).

T1 sequence (P31749 whole entry E17K): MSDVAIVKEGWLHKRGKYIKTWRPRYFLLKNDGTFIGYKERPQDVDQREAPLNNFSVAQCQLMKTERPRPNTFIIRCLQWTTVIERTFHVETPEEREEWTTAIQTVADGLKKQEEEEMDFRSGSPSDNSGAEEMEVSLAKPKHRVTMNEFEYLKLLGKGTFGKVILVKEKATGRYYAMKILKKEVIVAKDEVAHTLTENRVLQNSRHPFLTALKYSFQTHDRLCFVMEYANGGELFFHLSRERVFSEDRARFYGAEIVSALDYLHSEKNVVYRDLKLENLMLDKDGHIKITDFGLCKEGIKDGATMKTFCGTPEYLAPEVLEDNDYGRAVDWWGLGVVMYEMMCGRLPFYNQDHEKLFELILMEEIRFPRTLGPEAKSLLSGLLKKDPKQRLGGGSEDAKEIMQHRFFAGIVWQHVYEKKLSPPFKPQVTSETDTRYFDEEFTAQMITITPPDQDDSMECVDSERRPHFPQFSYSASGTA

As to `Nc1ncccc1-c1nc2ccc(-c3ccccc3)nc2n1-c1ccc(CN2CCC(Nc3ccc(O)c(C=O)c3)CC2)cc1` [Example 48, 5-((1-(4-(2-(2-Aminopyridin-3-yl)-5-phenyl-3H-imidazo[4,5-b]pyridin-3-yl)benzyl)piperidin-4-yl)amino)-2-hydroxybenzaldehyde], the IC50 (in general, the point on the concentration scale where inhibition reaches its midpoint) was in the range of 60 to 600 nM.
Molecule `Nc1ncccc1-c1nc2ccc(-c3ccccc3)nc2n1-c1ccc(CN2CCC3(CC2)CCN(c2ccc(C=O)c(O)c2)CC3)cc1` [Example 78, 4-(9-(4-(2-(2-Aminopyridin-3-yl)-5-phenyl-3H-imidazo[4,5-b]pyridin-3-yl)benzyl)-3,9-diazaspiro[5.5]undecan-3-yl)-2-hydroxybenzaldehyde] registered a concentration for half-maximal inhibition (IC50) of 60 to 600 nM.
As for `Nc1ncccc1-c1nc2ccc(-c3ccccc3)nc2n1-c1ccc(CN2CC3CCC(C2)N3C(=O)c2ccc(O)c(C=O)c2)cc1` [Example 110, 5-(3-(4-(2-(2-Aminopyridin-3-yl)-5-phenyl-3H-imidazo[4,5-b]pyridin-3-yl)benzyl)-3,8-diazabicyclo[3.2.1]octane-8-carbonyl)-2-hydroxybenzaldehyde], the figure is greater than 600 nM; as for `Nc1ncccc1-c1nc2ccc(-c3ccccc3)nc2n1-c1ccc(CN2CCC3(CC2)CCN(C(=O)c2ccc(O)c(C=O)c2)C3)cc1` [Example 74, 5-(8-(4-(2-(2-aminopyridin-3-yl)-5-phenyl-3H-imidazo[4,5-b]pyridin-3-yl)benzyl)-2,8-diazaspiro[4.5]decane-2-carbonyl)-2-hydroxybenzaldehyde], 15 to 60 nM.
As for `Nc1ncccc1-c1nc2ccc(-c3ccccc3)nc2n1-c1ccc(COc2ccc(O)c(C=O)c2)cc1` [Example 139, 5-((4-(2-(2-Aminopyridin-3-yl)-5-phenyl-3H-imidazo[4,5-b]pyridin-3-yl)benzyl)oxy)-2-hydroxybenzaldehyde], the figure is greater than 600 nM.
With `Nc1ncccc1-c1nc2ccc(-c3ccccc3)nc2n1-c1ccc(CN2CCC(N(C(=O)c3ccc(O)c(C=O)c3)C3CC3)CC2)cc1` [Example 12, N-(1-(4-(2-(2-aminopyridin-3-yl)-5-phenyl-3H-imidazo[4,5-b]pyridin-3-yl)benzyl)piperidin-4-yl)-N-cyclopropyl-3-formyl-4-hydroxybenzamide], the 50% inhibitory concentration (IC50) fell in the range of 60 to 600 nM.
As to `Nc1ncccc1-c1nc2ccc(-c3ccccc3)nc2n1-c1ccc(CN2CC3(CCN(C(=O)c4ccc(O)c(C=O)c4)C3)C2)cc1` [Example 92, 5-(2-(4-(2-(2-Aminopyridin-3-yl)-5-phenyl-3H-imidazo[4,5-b]pyridin-3-yl)benzyl)-2,6-diazaspiro[3.4]octane-6-carbonyl)-2-hydroxybenzaldehyde], the IC50 fell in the range of 15 to 60 nM.
In turn, `Nc1ncccc1-c1nc2ccc(-c3ccccc3)nc2n1-c1ccc(CN2CC[C@]3(CCN(C(=O)c4ccc(C=O)c(O)c4)C3)C2)cc1` [Example 102, (S)-4-(7-(4-(2-(2-Aminopyridin-3-yl)-5-phenyl-3H-imidazo[4,5-b]pyridin-3-yl)benzyl)-2,7-diazaspiro[4.4]nonane-2-carbonyl)-2-hydroxybenzaldehyde] returned a half-inhibitory concentration (IC50) of 60 to 600 nM.
The molecule `Nc1ncccc1-c1nc2ccc(-c3cccc(Cl)c3)nc2n1-c1ccc(CN2CCN(C(=O)c3ccc(O)c(C=O)c3)CC2)cc1` [Example 42, 5-(4-(4-(2-(2-Aminopyridin-3-yl)-5-(3-chlorophenyl)-3H-imidazo[4,5-b]pyridin-3-yl)benzyl)piperazine-1-carbonyl)-2-hydroxybenzaldehyde] returned a concentration for half-maximal inhibition (IC50) of 60 to 600 nM.
Regarding `Nc1ncccc1-c1nc2ccc(-c3ccccc3)nc2n1-c1ccc(CN2CCN(C(=O)c3ccc(C=O)c(O)c3)CC2)cc1` [Example 6, 4-(4-(4-(2-(2-Aminopyridin-3-yl)-5-phenyl-3H-imidazo[4,5-b]pyridin-3-yl)benzyl)piperazine-1-carbonyl)-2-hydroxybenzaldehyde], the IC50 is 60 to 600 nM.
In turn, `Nc1ncccc1-c1nc2ccc(-c3cccc(=O)[nH]3)nc2n1-c1ccc(CN2CCN(C(=O)c3ccc(O)c(C=O)c3)CC2)cc1` [Example 45, 5-(4-(4-(2-(2-Aminopyridin-3-yl)-5-(6-oxo-1,6-dihydropyridin-2-yl)-3H-imidazo[4,5-b]pyridin-3-yl)benzyl)piperazine-1-carbonyl)-2-hydroxybenzaldehyde] came in with an IC50 greater than 600 nM.
As for `Nc1ncccc1-c1nc2ccc(-c3ccccc3)nc2n1-c1ccc(CN2CC[C@@H](NC(=O)c3ccc(O)c(C=O)c3)C2)cc1` [Example 59, (R)—N-(1-(4-(2-(2-aminopyridin-3-yl)-5-phenyl-3H-imidazo[4,5-b]pyridin-3-yl)benzyl)pyrrolidin-3-yl)-3-formyl-4-hydroxybenzamide], the figure is less than 15 nM; as for `Nc1ncccc1-c1nc2ccc(-c3ccccc3)nc2n1-c1ccc(CN2C[C@@H]3C[C@H]2CN3C(=O)c2ccc(C=O)c(O)c2)cc1` [Example 122, 4-((1S,4S)-5-(4-(2-(2-Aminopyridin-3-yl)-5-phenyl-3H-imidazo[4,5-b]pyridin-3-yl)benzyl)-2,5-diazabicyclo[2.2.1]heptane-2-carbonyl)-2-hydroxybenzaldehyde], 15 to 60 nM.
For `Nc1ncccc1-c1nc2ccc(-c3ccccc3)nc2n1-c1ccc(CN2C3CCC2CN(C(=O)c2ccc(O)c(C=O)c2)C3)cc1` [Example 112, 5-(8-(4-(2-(2-Aminopyridin-3-yl)-5-phenyl-3H-imidazo[4,5-b]pyridin-3-yl)benzyl)-3,8-diazabicyclo[3.2.1]octane-3-carbonyl)-2-hydroxybenzaldehyde], the half-maximal inhibitory concentration (IC50) was greater than 600 nM.
As for `Nc1ncccc1-c1nc2ccc(-c3ccccc3)nc2n1-c1ccc(CN2CC3(C2)CN(c2ccc(O)c(C=O)c2)C3)cc1` [Example 91, 5-(6-(4-(2-(2-Aminopyridin-3-yl)-5-phenyl-3H-imidazo[4,5-b]pyridin-3-yl)benzyl)-2,6-diazaspiro[3.3]heptan-2-yl)-2-hydroxybenzaldehyde], the IC50 lay in the range of 60 to 600 nM.
As for `Nc1ncccc1-c1nc2ccc(-c3ccccc3)nc2n1-c1ccc(CN2CC[C@]3(CCN(C(=O)c4ccc(O)c(C=O)c4)C3)C2)cc1` [Example 101, (S)-5-(7-(4-(2-(2-Aminopyridin-3-yl)-5-phenyl-3H-imidazo[4,5-b]pyridin-3-yl)benzyl)-2,7-diazaspiro[4.4]nonane-2-carbonyl)-2-hydroxybenzaldehyde], the IC50 was 60 to 600 nM.
As to `Nc1ncccc1-c1nc2ccc(-c3ccccc3)nc2n1-c1ccc(CN2CCN(c3cc(O)c(C=O)c(F)c3)CC2)cc1` [Example 24, 4-(4-(4-(2-(2-Aminopyridin-3-yl)-5-phenyl-3H-imidazo[4,5-b]pyridin-3-yl)benzyl)piperazin-1-yl)-2-fluoro-6-hydroxybenzaldehyde], the IC50 lay in the range of 60 to 600 nM.
Consider `Nc1ncccc1-c1nc2ccc(-c3ccccc3)nc2n1-c1ccc(CN2CCC(NC(=O)c3ccc(O)c(C=O)c3)CC2)cc1` [Example 7, N-(1-(4-(2-(2-Aminopyridin-3-yl)-5-phenyl-3H-imidazo[4,5-b]pyridin-3-yl)benzyl)piperidin-4-yl)-3-formyl-4-hydroxybenzamide], for which the half-inhibitory concentration (IC50) was less than 15 nM.
Consider `Nc1ncccc1-c1nc2ccc(-c3ccccc3)nc2n1-c1ccc(CN2C[C@@H]3C[C@H]2CN3C(=O)c2ccc(O)c(C=O)c2)cc1` [Example 121, 5-((1S,4S)-5-(4-(2-(2-Aminopyridin-3-yl)-5-phenyl-3H-imidazo[4,5-b]pyridin-3-yl)benzyl)-2,5-diazabicyclo[2.2.1]heptane-2-carbonyl)-2-hydroxybenzaldehyde], for which the IC50 lay in the range of 60 to 600 nM.
On to `Nc1ncccc1-c1nc2ccc(-c3ccccc3)nc2n1-c1ccc(CN2CCC(Oc3cccc(O)c3C=O)CC2)cc1` [Example 128, 2-((1-(4-(2-(2-Aminopyridin-3-yl)-5-phenyl-3H-imidazo[4,5-b]pyridin-3-yl)benzyl)piperidin-4-yl)oxy)-6-hydroxybenzaldehyde], for which the half-inhibitory concentration (IC50) fell in the range of 60 to 600 nM.
Take `Nc1ncccc1-c1nc2ccc(-c3ccccc3)nc2n1-c1ccc(CN2CCC3(CC2)CN(C(=O)c2ccc(O)c(C=O)c2)C3)cc1` [Example 67, 5-(7-(4-(2-(2-Aminopyridin-3-yl)-5-phenyl-3H-imidazo[4,5-b]pyridin-3-yl)benzyl)-2,7-diazaspiro[3.5]nonane-2-carbonyl)-2-hydroxybenzaldehyde]: the IC50 is 60 to 600 nM.
`Nc1ncccc1-c1nc2ccc(-c3ccccc3)nc2n1-c1ccc(CN2CCC(Nc3cccc(O)c3C=O)CC2)cc1` [Example 51, 2-((1-(4-(2-(2-Aminopyridin-3-yl)-5-phenyl-3H-imidazo[4,5-b]pyridin-3-yl)benzyl)piperidin-4-yl)amino)-6-hydroxybenzaldehyde] gave a 50% inhibitory concentration (IC50) of 60 to 600 nM.
`Nc1ncccc1-c1nc2ccc(-c3ccccc3)nc2n1-c1ccc(CN2CCC3(CCN(c4ccc(C=O)c(O)c4)C3)C2)cc1` (centres unmarked) [Example 82, 4-(7-(4-(2-(2-Aminopyridin-3-yl)-5-phenyl-3H-imidazo[4,5-b]pyridin-3-yl)benzyl)-2,7-diazaspiro[4.4]nonan-2-yl)-2-hydroxybenzaldehyde] registered a 50% inhibitory concentration (IC50) of 60 to 600 nM.
`Nc1ncccc1-c1nc2cccnc2n1-c1ccc(CNC(=O)c2ccc(C=O)c(O)c2)cc1` [Example 3, N-(4-(2-(2-Aminopyridin-3-yl)-3H-imidazo[4,5-b]pyridin-3-yl)benzyl)-4-formyl-3-hydroxybenzamide] displayed a concentration for half-maximal inhibition (IC50) greater than 600 nM.
`Nc1ncccc1-c1nc2ccc(-c3ccccc3)nc2n1-c1ccc(CN2CCC3(CCN(C(=O)c4ccc(O)c(C=O)c4)CC3)C2)cc1` [Example 84, 5-(2-(4-(2-(2-Aminopyridin-3-yl)-5-phenyl-3H-imidazo[4,5-b]pyridin-3-yl)benzyl)-2,8-diazaspiro[4.5]decane-8-carbonyl)-2-hydroxybenzaldehyde] gave a 50% inhibitory concentration (IC50) of 60 to 600 nM.
Turning to `Nc1ncccc1-c1nc2ccc(-c3ccccc3Cl)nc2n1-c1ccc(CN2CCN(c3ccc(C=O)c(O)c3)CC2)cc1` [Example 145, 4-(4-(4-(2-(2-Aminopyridin-3-yl)-5-(2-chlorophenyl)-3H-imidazo[4,5-b]pyridin-3-yl)benzyl)piperazin-1-yl)-2-hydroxybenzaldehyde], the 50% inhibitory concentration (IC50) was 60 to 600 nM.
